This passage reports inhibition results from ChEMBL document CHEMBL3132769, “Fragment growing to retain or alter the selectivity of anchored kinase hinge-binding fragments” (Medchemcomm, 2014).

For test [1], the target named is T1, Serine/threonine-protein kinase BRSK2 (Homo sapiens) (UniProt Q8IWQ3).
T1 sequence (whole entry): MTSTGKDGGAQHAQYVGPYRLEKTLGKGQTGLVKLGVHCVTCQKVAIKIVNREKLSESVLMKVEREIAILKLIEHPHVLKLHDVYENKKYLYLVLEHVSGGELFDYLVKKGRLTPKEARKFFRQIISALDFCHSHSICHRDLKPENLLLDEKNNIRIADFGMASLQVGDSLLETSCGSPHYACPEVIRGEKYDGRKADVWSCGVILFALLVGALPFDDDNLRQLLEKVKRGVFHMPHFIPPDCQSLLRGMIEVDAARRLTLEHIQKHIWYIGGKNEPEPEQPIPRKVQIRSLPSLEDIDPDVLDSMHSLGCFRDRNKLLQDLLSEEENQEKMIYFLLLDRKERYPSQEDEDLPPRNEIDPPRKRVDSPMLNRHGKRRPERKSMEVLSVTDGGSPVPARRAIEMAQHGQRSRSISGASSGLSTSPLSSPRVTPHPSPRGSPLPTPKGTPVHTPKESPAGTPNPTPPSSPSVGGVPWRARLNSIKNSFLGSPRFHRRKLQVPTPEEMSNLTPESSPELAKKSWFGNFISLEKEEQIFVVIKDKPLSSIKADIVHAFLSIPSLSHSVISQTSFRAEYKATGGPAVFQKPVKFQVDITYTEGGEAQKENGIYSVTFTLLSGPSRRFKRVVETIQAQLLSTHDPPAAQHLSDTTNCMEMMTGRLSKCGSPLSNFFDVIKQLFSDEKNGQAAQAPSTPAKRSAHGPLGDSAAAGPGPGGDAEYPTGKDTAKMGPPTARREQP
Description: Inhibition of human truncated BRSK2 expressed in baculovirus assessed as substrate phosphorylation using fluorescence-labelled peptides as substrate at 0.1 uM after 90 mins by microfluidic peptide phosphorylation assay.

Test [2] has as its target Platelet-derived growth factor receptor alpha (Homo sapiens) (UniProt P16234). Description: Inhibition of human PDGFR alpha catalytic domain expressed in baculovirus assessed as substrate phosphorylation using fluorescence-labelled peptides as substrate at 0.1 uM after 90 mins by microfluidic peptide phosphorylation assay.
The target of test [3] is Serine/threonine-protein kinase PAK 2 (Homo sapiens) (UniProt Q13177). Conditions: 0.1 uM.
Description: Inhibition of human truncated PAK2 expressed in Escherichia coli cell assessed as substrate phosphorylation using fluorescence-labelled peptides as substrate at 0.1 uM after 90 mins by microfluidic peptide phosphorylation assay
For test [4], the target named is T2, Interleukin-1 receptor-associated kinase 4 (Homo sapiens) (UniProt Q9NWZ3).
T2 sequence (whole entry): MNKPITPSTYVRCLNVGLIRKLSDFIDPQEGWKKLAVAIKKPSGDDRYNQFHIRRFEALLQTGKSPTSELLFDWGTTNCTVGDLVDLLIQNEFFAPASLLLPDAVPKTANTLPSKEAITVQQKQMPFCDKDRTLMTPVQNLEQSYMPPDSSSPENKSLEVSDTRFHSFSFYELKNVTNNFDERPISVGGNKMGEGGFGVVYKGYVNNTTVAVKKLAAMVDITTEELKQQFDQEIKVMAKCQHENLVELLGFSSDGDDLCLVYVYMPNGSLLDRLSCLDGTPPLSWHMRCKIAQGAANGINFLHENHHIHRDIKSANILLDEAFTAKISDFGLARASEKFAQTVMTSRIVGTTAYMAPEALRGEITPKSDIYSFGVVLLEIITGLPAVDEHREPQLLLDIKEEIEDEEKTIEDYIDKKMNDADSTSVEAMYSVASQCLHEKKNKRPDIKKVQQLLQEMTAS
In words: Inhibition of human IRAK4 catalytic domain expressed in baculovirus assessed as substrate phosphorylation using fluorescence-labelled peptides as substrate at 420 uM after 90 mins by microfluidic peptide phosphorylation assay.

The target in test [5] is T3, Mitogen-activated protein kinase 13 (Homo sapiens) (UniProt O15264).
T3 sequence (whole entry): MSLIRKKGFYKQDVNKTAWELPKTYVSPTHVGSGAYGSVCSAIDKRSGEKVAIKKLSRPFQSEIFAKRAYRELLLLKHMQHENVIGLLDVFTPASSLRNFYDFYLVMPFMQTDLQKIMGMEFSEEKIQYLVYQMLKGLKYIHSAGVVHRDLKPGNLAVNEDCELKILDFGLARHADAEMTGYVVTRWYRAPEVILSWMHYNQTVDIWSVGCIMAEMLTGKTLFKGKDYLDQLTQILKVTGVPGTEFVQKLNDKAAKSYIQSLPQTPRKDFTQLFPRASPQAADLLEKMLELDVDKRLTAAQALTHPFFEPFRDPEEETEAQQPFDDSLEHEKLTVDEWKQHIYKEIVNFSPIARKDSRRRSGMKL
Description: Inhibition of human full length p38 delta expressed in Escherichia coli cell assessed as substrate phosphorylation using fluorescence-labelled peptides as substrate at 95 uM after 90 mins by microfluidic peptide phosphorylation assay.

Test [6] has as its target Calcium/calmodulin-dependent protein kinase type II subunit beta (Homo sapiens) (UniProt Q13554). Description: Inhibition of human CAMK2 beta catalytic domain expressed in baculovirus assessed as substrate phosphorylation using fluorescence-labelled peptides as substrate at 9 uM after 90 mins by microfluidic peptide phosphorylation assay.
Test [7] concerns the target Rho-associated protein kinase 2 (Homo sapiens) (UniProt O75116). In words: Inhibition of human ROCK2 catalytic domain expressed in baculovirus assessed as substrate phosphorylation using fluorescence-labelled peptides as substrate at 9 uM after 90 mins by microfluidic peptide phosphorylation assay.
The subject of test [8] is Tyrosine-protein kinase ABL1 (Homo sapiens), P00519 [Q252H]. In words: Inhibition of human truncated ABL Q252H mutant expressed in baculovirus assessed as substrate phosphorylation using fluorescence-labelled peptides as substrate at 9 uM after 90 mins by microfluidic peptide phosphorylation assay.
Test [9] deals with Rho-associated protein kinase 2 (Homo sapiens) (UniProt O75116). In words: Inhibition of human ROCK2 catalytic domain expressed in baculovirus assessed as substrate phosphorylation using fluorescence-labelled peptides as substrate at 2 uM after 90 mins by microfluidic peptide phosphorylation assay.
Test [10] concerns the target Dual specificity tyrosine-phosphorylation-regulated kinase 1A (Rattus norvegicus) (UniProt Q63470). In words: Inhibition of rat full length DYRK1a expressed in Escherichia coli cell assessed as substrate phosphorylation using fluorescence-labelled peptides as substrate at 70 uM after 90 mins by microfluidic peptide phosphorylation assay.

Chain of Rho-associated protein kinase 2 (Homo sapiens) (O75116 whole entry, looked up, the tested form may be a part): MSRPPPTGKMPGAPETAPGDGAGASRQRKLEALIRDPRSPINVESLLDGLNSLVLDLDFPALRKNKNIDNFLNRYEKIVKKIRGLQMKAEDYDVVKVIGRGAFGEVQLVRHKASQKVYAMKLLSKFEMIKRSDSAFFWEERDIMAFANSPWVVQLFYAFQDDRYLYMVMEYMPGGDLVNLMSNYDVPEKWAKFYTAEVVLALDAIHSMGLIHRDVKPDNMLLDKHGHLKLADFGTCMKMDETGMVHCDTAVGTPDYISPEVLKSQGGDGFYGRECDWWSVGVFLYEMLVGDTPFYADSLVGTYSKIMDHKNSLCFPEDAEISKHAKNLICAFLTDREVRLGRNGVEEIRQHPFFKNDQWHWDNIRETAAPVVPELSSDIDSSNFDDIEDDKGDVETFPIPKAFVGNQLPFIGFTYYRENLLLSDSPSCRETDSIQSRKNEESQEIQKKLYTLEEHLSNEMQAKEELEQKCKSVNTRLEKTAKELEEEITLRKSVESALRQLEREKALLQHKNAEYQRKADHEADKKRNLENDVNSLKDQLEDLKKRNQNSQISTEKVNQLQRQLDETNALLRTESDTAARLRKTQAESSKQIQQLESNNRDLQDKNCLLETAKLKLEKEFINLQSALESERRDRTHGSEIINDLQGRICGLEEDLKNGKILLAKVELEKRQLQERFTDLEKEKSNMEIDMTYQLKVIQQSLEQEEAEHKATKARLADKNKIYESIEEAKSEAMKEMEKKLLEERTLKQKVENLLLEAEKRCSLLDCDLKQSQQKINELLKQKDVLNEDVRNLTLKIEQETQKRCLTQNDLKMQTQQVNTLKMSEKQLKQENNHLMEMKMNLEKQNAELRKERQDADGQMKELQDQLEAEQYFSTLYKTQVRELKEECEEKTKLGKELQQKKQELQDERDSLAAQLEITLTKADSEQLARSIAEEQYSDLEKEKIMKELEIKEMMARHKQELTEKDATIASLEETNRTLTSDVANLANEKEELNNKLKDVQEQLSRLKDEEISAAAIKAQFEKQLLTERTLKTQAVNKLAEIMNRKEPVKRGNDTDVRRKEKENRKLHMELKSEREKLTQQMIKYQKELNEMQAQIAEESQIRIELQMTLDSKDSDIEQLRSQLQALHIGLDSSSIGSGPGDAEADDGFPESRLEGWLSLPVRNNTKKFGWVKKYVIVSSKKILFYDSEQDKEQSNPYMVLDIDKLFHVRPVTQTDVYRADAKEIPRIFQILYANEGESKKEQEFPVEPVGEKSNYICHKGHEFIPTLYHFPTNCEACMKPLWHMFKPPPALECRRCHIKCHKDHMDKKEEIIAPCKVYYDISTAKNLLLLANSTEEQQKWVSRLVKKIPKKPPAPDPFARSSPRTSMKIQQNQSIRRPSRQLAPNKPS
Chain of Serine/threonine-protein kinase PAK 2 (Homo sapiens) (Q13177 whole entry): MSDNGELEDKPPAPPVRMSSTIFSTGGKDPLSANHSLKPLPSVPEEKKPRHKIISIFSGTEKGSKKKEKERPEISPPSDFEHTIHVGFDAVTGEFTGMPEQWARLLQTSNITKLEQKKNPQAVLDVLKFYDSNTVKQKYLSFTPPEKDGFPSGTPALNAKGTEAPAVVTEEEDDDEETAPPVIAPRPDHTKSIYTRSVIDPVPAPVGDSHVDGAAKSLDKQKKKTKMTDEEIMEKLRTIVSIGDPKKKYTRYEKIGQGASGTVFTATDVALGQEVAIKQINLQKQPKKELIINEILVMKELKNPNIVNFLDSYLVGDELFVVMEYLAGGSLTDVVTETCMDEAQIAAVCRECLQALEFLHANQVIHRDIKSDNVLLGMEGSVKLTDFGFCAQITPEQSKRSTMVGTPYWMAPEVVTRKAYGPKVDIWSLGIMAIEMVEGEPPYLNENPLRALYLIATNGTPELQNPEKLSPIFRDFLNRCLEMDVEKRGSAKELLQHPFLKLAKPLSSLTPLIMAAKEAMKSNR
Chain of Platelet-derived growth factor receptor alpha (Homo sapiens) (P16234 whole entry, the tested form may be a part): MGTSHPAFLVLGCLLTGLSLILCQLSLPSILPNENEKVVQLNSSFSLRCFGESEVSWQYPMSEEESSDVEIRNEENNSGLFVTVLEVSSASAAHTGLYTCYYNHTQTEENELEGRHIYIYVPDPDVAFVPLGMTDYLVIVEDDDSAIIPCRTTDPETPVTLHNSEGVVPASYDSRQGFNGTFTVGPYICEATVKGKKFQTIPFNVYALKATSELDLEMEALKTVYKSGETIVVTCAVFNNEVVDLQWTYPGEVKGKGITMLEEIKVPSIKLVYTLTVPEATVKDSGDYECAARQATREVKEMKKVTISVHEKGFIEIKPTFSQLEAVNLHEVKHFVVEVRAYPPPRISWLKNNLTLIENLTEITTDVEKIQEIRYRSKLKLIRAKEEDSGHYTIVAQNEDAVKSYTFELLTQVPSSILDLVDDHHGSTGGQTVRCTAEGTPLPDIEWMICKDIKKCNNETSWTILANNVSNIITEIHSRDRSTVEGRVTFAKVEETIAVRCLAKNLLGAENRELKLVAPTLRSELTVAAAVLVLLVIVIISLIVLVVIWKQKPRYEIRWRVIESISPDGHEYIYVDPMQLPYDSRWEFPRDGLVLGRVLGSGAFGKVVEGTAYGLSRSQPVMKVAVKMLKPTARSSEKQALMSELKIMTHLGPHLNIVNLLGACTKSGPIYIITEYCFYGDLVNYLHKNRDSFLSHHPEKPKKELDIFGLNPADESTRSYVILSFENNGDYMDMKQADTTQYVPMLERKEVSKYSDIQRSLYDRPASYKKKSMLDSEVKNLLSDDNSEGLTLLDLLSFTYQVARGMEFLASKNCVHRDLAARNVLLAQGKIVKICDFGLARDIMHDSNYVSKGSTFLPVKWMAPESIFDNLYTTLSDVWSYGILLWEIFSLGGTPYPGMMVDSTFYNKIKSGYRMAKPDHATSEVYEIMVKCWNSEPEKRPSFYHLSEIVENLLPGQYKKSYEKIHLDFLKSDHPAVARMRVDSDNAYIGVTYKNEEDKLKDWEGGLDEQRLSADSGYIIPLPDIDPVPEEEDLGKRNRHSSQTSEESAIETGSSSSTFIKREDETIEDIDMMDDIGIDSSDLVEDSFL
Chain of Calcium/calmodulin-dependent protein kinase type II subunit beta (Homo sapiens) (Q13554 whole entry, the tested form may be a part): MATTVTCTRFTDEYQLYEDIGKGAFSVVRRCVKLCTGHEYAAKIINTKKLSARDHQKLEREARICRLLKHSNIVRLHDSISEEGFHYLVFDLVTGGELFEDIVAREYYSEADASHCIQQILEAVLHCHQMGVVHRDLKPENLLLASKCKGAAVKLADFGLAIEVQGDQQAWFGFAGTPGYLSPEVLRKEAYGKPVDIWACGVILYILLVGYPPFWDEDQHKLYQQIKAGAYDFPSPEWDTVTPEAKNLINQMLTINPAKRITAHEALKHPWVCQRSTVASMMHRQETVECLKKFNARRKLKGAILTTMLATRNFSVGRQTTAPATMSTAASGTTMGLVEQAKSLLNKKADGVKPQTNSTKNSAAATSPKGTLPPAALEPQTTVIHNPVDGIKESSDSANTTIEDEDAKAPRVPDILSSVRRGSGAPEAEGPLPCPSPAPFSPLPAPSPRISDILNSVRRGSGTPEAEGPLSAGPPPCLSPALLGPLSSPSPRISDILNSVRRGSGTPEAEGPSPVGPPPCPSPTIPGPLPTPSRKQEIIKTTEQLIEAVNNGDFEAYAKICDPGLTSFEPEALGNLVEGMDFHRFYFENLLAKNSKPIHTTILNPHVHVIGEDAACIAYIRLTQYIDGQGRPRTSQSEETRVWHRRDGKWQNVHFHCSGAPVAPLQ

For `C[C@H](CN(C)C)Oc1nc(Nc2cc3cccc(Cl)c3cn2)cnc1C#N`, the inhibition (in general, the share of the control response that was lost under treatment) was determined as 28.5% in test [1], 8.5% in test [2] and 0% in test [3].
For the compound `c1nc(N2CCOCC2)c2nc[nH]c2n1`, the inhibition in test [4] was determined as 74.5%.
Take `NCCc1ccc(-c2ncnc3[nH]cnc23)cc1`: in test [5], the inhibition came out at 13%.
With `NCC1CN(c2ncnc3[nH]c4cnccc4c23)CCO1` (stereo not given), the inhibition was 4% in test [6], 53% in test [7] and 6% in [8].
Take `NC1CCN(c2ncnc3[nH]ccc23)CC1`: in test [9], the inhibition came out at 44%.
Consider `CNCc1ccc(-c2ncnc3[nH]cnc23)cc1`, for which, in [10], the inhibition stood at 61%.
